Experimental data from US9084420B2, “Amide derivative, pest control agent containing the amide derivative, and pest controlling method” (Mitsui Chemicals Agro, Inc., priority 2008, dated 2015).

Assays:
Type in all cases: in vivo
[1] = tested on: Musca domestica; experiment: Pesticidal test against Musca domestica (petri dish residue); settings: 24 h, acetone solution dried in petri dish, female adults, 25° C., after 1 day, read-out: pesticidal rate
Method: Pesticidal Test Against Musca domestica
1 ml of an acetone solution in which a test compound had been diluted at a predetermined concentration was added dropwise to a petri dish having a diameter of 9 cm, and air-dried, and then the female adults of Musca domestica were released and the petri dish was capped. They were left to stand in a thermostatic chamber at 25° C., and the numbers of the living pests and the dead pests were examined after 1 day. The test was carried out with […] in two replicates.

[2] = tested on: Spodoptera litura; experiment: Pesticidal test against Spodoptera litura (cabbage leaf immersion); settings: 144 h, 2-stage larvae on treated cabbage leaf, 25° C., after 6 days, read-out: pesticidal rate
Method: (§1) Pesticidal Test Against Spodoptera litura A piece of a cabbage leaf was immersed for 30 seconds in a chemical solution in which a test compound had been diluted at a predetermined concentration, and air-dried, and then put into a 7 cm polyethylene cup having a filter paper laid on the bottom thereof, and 2-stage larvae of Spodoptera litura were released. They were left to stand in a thermostatic chamber at 25° C., and the numbers of the living pests and the dead pests were examined after 6 days. The test was carried out with five larvae per group in two replicates.

[3] = tested on: Spodoptera litura; experiment: Pesticidal test of penetration migration against Spodoptera litura (radish seedling root immersion); settings: 72 h, radish seedling root immersed 2 days, leaf fed to 2-stage larvae, 25° C., after 3 days, read-out: pesticidal rate
Method: Pesticidal Test of Penetration Migration against Spodoptera litura A root portion of a radish seedling was immersed for 2 days in a chemical solution in which a test compound had been diluted at a predetermined concentration, then the leaf was cut and put into a 7 cm polyethylene cup having a filter paper laid on the bottom thereof, and 2-stage larvae of Spodoptera litura were released. They were left to stand in a thermostatic chamber at 25° C., and the numbers of the living pests and the dead pests were examined after 3 days. The test was carried out with five larvae per group in two replicates.

[4] = tested on: Plutella xylostella; experiment: Pesticidal test against Plutella xylostella (cabbage leaf immersion); settings: 144 h, 3-stage larvae on treated cabbage leaf, 25° C., after 6 days, read-out: pesticidal rate
Method: as §1, with “Plutella xylostella” for “Spodoptera litura”, “3-stage” for “2-stage”

CCOC(=O)NC(=O)CCN(C(=O)c1ccc(C#N)cc1)c1cccc(C(=O)Nc2c(Br)cc(C(F)(C(F)(F)F)C(F)(F)F)cc2C(F)(F)F)c1F [5-76, ethyl 3-(N-(3-(2-bromo-4-(perfluorophan-2-yl)-6-(trifluoromethyl)phenylcarbamoyl)-2-fluorophenyl)-4-cyanobenzamide)propanoylcarbamate]
≥ 70%: pest or weed control at 1000 ppm [1] | pest or weed control at 100 ppm [2] | pest or weed control at 1 ppm [3] | pest or weed control at 100 ppm [4]
